Measurements from article PMC11579541, “In vitro, in vivo, and in silico approaches for evaluating the preclinical DMPK profiles of ammoxetine, a novel chiral serotonin and norepinephrine reuptake inhibitor” (Frontiers in Pharmacology, 2024).

Test: Excretion study in rats
Assay type: in vivo, SD rats
Settings: 20 mg/kg oral; for Bile Cumulative excretion rate / Bile Excretion rate: bile duct cannulated rats; for Feces Cumulative excretion rate / Feces Excretion rate / Urine Cumulative excretion rate / Urine Excretion rate: rats
Experimental: Five SD rats were pre-adapted in separate metabolic cages with access to water and a solid diet. They were then administered a single oral dose of 20 mg/kg of ammoxetine after a 12-h fasting period and free access to water. Feces and urine samples were collected at specific time intervals: 0–5 h, 5–12 h, 12–24 h, 24–48 h, and 48–72 h post-administration. The dried fecal weights and urine volumes were measured and recorded at each sampling period. The collected feces were ground, thoroughly mixed, and then homogenized in distilled water to create a 10% homogenate, which was used as the fecal sample. In parallel, after a 12-h fasting period with free access to water, five SD rats were anesthetized, and bile duct cannulation was performed to collect bile samples. Once recovered from anesthesia, these rats received a single oral dose of 20 mg/kg of ammoxetine via oral gavage. Bile was collected at the following time points: 0–5 h, 5–12 h, 12–24 h, 24–48 h, and 48–72 h post-dosing, and its volume was measured. All collected samples were stored at −30°C until further processing. For sample processing, 100 μL of feces homogenates, urine, or bile samples were taken and mixed with 100 μL of L-phencynonate (IS, 50 ng/mL) and 300 μL of methanol. After vortexing, the mixture was centrifuged at 13,800×g for 10 min. The resulting supernatants were analyzed using an LC-MS-MS method.

CNCC[C@H](Oc1cccc2c1OCO2)c1cccs1 [ammoxetine]
Bile Cumulative excretion rate (0–5 h): 0.089 ± 0.058%
Bile Excretion rate (0–5 h): 0.089 ± 0.058%
Bile Cumulative excretion rate (5–12 h): 0.271 ± 0.257%
Bile Excretion rate (5–12 h): 0.182 ± 0.212%
Bile Cumulative excretion rate (12–24 h): 0.420 ± 0.384%
Bile Excretion rate (12–24 h): 0.149 ± 0.146%
Bile Cumulative excretion rate (24–48 h): 0.420 ± 0.384%
Bile Excretion rate (48–72 h): 0.016 ± 0.016%
Bile Cumulative excretion rate (48–72 h (at 72 h)): 0.436 ± 0.400%
Feces Cumulative excretion rate (0–5 h): 0.010 ± 0.008%
Feces Excretion rate (0–5 h): 0.010 ± 0.008%
Urine Cumulative excretion rate (0–5 h): 0.116 ± 0.034%
Urine Excretion rate (0–5 h): 0.116 ± 0.034%
Feces Cumulative excretion rate (5–12 h): 0.216 ± 0.060%
Feces Excretion rate (5–12 h): 0.206 ± 0.056%
Urine Cumulative excretion rate (5–12 h): 0.223 ± 0.069%
Urine Excretion rate (5–12 h): 0.107 ± 0.048%
Feces Cumulative excretion rate (12–24 h): 0.361 ± 0.168%
Feces Excretion rate (12–24 h): 0.145 ± 0.126%
Urine Cumulative excretion rate (12–24 h): 0.273 ± 0.124%
Urine Excretion rate (12–24 h): 0.050 ± 0.057%
Feces Cumulative excretion rate (24–48 h): 0.380 ± 0.180%
Feces Excretion rate (24–48 h): 0.019 ± 0.016%
Urine Cumulative excretion rate (24–48 h): 0.287 ± 0.134%
Urine Excretion rate (24–48 h): 0.014 ± 0.010%
Feces Excretion rate (48–72 h): 0.002 ± 0.003%
Urine Excretion rate (48–72 h): 0.005 ± 0.003%
Feces Cumulative excretion rate (48–72 h (at 72 h)): 0.382 ± 0.180%
Urine Cumulative excretion rate (48–72 h (at 72 h)): 0.292 ± 0.137%
